Assay results as given in ChEMBL document CHEMBL6071186, “Design, Synthesis, and Structural Evaluation of Acetylated Phenylthioketone Inhibitors of HDAC10” (ACS Med Chem Lett, 2024).

How the values were obtained:
[1] = target: T1, Polyamine deacetylase HDAC10 (Homo sapiens) (UniProt Q969S8); conditions: dose 500.0 µM
T1 sequence (whole entry): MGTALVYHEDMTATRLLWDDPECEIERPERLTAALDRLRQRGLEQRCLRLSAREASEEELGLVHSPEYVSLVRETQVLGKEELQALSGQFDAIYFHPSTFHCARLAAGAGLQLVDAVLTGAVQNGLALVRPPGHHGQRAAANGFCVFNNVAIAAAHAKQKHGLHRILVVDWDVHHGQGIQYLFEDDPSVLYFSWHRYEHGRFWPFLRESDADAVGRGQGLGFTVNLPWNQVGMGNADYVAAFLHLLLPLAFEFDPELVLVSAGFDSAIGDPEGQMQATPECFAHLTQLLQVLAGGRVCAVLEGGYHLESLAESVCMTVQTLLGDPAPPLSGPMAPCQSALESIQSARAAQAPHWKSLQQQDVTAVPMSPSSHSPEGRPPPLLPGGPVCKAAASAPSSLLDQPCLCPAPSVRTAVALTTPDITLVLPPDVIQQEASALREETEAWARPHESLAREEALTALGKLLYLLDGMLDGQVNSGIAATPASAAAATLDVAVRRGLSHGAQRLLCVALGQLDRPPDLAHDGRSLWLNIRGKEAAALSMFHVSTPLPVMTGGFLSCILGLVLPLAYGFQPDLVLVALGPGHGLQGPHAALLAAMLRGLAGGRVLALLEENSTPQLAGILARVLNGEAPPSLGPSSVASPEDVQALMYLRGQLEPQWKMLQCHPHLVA
Description: Binding affinity to humanized HDAC10 (A24E to D94A residues) (unknown origin) extracted from Danio rerio assessed as thermal stability by measuring melting temperature at 500 uM by differential scanning fluorimetry analysis (Rvb = 47.8+/-0.1degreeC)

[2] = target: T1, Polyamine deacetylase HDAC10 (Homo sapiens); conditions: dose 500.0 µM; remark: listed apart in the source
Description: Binding affinity to humanized HDAC10 (A24E to D94A residues) (unknown origin) extracted from Danio rerio assessed as change in melting temperature at 500 uM by differential scanning fluorimetry analysis

- Tm [1]: 65.5 °C
- ΔTm [2]: 17.7 °C
SMILES: CN1CCc2c(c3ccccc3n2Cc2ccc(C(=O)NO)cc2)C1
